Assay results as given in patent US8592422B2, “Bicyclic triazole and pyrazole lactams as allosteric modulators of mGluR5 receptors” (Vanderbilt University, priority 2010, dated 2013).
Like-named read-outs stand apart in the source and are kept apart here.

Legend:
[1] = biological target: T1, human mGluR5a receptor (Homo sapiens, UniProt P41594); assay: Cell-based functional Ca2+ mobilization assay (FDSS), potentiation of glutamate EC20 response; conditions: for EC50 / pEC50: HEK cells transfected with human mGluR5 (H10H or H12H), in presence of EC20 glutamate; for Emax / Emax (%): maximum % effect in concentration-response curve, as percent of response to maximally effective glutamate
T1 construct: cDNA subcloned into pcDNA3.1(-)
Outline: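 HEK293A cells stably expressing human mGluR5a (H10H or H12H clones), plated overnight in glutamate-glutamine-free medium, loaded with Ca2+-sensitive dye (e.g. Fluo-4) and read on FDSS.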

T1 sequence (P41594 21-1180 isoform P41594-2 limits assumed): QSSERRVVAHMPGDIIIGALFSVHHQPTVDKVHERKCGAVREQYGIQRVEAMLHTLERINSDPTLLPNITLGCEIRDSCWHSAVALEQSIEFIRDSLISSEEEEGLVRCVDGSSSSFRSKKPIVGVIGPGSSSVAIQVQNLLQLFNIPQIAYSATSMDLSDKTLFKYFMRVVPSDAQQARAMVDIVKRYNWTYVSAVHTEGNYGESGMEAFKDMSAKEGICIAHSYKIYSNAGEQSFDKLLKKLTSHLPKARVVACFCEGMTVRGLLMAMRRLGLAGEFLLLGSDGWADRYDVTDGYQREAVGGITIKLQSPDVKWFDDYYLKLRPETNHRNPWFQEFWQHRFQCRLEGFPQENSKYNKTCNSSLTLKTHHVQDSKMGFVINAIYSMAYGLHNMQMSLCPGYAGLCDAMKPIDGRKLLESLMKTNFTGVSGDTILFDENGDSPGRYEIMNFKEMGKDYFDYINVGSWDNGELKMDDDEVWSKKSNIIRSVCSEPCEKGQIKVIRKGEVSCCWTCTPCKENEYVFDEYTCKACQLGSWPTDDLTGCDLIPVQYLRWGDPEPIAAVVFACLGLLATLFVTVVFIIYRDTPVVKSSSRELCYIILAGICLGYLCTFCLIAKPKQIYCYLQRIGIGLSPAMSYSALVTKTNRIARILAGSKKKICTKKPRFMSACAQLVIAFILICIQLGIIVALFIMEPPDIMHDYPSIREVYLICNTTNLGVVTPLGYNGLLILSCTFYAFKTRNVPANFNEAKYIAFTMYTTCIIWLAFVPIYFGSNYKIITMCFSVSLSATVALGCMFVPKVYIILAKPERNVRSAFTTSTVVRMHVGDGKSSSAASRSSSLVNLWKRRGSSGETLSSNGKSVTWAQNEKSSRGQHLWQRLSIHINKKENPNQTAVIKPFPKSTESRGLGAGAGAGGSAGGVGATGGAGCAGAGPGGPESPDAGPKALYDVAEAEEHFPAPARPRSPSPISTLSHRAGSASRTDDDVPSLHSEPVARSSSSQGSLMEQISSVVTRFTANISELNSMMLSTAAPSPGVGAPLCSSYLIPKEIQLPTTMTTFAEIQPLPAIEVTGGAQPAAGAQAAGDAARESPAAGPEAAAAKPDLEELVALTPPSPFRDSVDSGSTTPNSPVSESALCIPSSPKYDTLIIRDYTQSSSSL

SMILES | EC50 ([1]; read-out: EC50) [nM] | Emax [1] [%] | melting point [°C] | EC50 ([1]; EC50 (nM)) [nM] | EC50 ([1]; read-out: pEC50 (converted)) [nM] | pEC50 [1] | Emax (%) [1] [%]
CC1CN(c2ccc(F)cc2)C(=O)c2cc(COc3ccccc3)nn21 (racemic) [Example 19] | 71 | 68 | 99.5 | – | – | – | –
CC1CN(c2ccc(F)cc2)C(=O)c2cc(COc3ccc(F)cc3)nn21 (racemic) [Example 234] | 141 | 69 | 164.2 | – | – | – | –
CC1CN(c2cccc(F)c2)C(=O)c2cc(COc3ccc(F)cc3)nn21 (racemic) [Example 235] | 170 | 64 | 128.1 | – | – | – | –
Cc1nc(N2CC(C)n3nc(COc4ccc(F)cc4)cc3C2=O)ccc1F (racemic) [Example 236] | 151 | 64 | 123.5 | – | – | – | –
O=C1c2cc(COc3ccccc3)nn2CCN1c1ccc(F)c(F)c1 [Example 7] | 98 | 80 | > 300 | – | – | – | –
O=C1c2cc(COc3ccccc3)nn2CCN1c1cccc(F)c1 [Example 8] | – | 81 | 155 | 132 | – | – | –
O=C1c2cc(COc3ccccc3)nn2CCN1c1ccccc1F [Example 9] | – | 82 | 154.7 | 162 | – | – | –
Cc1cccc(N2CCn3nc(COc4ccccc4)cc3C2=O)n1 [Example 10] | 162 | 84 | 129.7 | – | – | – | –
O=C1c2cc(COc3ccccc3)nn2CCN1c1ccncc1 [Example 14] | 1480 | 72 | 271.3 | – | – | – | –
Cc1ccnc(N2CCn3nc(COc4ccccc4)cc3C2=O)c1 [Example 17] | 490 | 72 | 131.3 | – | – | – | –
Cc1cncc(N2CCn3nc(COc4ccccc4)cc3C2=O)c1 [Example 22] | 1200 | 74 | 155.3 | – | – | – | –
Cc1ccc(N2CCn3nc(COc4ccccc4)cc3C2=O)cn1 [Example 23] | 1200 | 81 | > 300 | – | – | – | –
O=C1c2cc(COc3ccccc3)nn2CCN1CC(F)(F)F [Example 24] | 2820 | 78 | 132.1 | – | 1660 | – | –
CC(C)N1CCn2nc(COc3ccccc3)cc2C1=O [Example 25] | 1860 | 53 | > 300 | – | – | – | –
O=C1c2cc(COc3ccccc3)nn2CCN1CC1CCC1 [Example 27] | 92 | 80 | > 300 | – | – | – | –
O=C1c2cc(COc3ccccc3)nn2CCN1CC1CC1(F)F (stereo not drawn) [Example 28] | 174 | 60 | 180.2 | – | – | – | –
O=C1c2cc(COc3ccccc3)nn2CCN1c1cncnc1 [Example 31] | > 10000 | 58 | 240 | – | – | – | –
Cc1ncc(N2CCn3nc(COc4ccccc4)cc3C2=O)cn1 [Example 33] | > 10000 | 67 | 283.4 | – | – | – | –
COc1ccccc1N1CCn2nc(COc3ccccc3)cc2C1=O [Example 47] | 93 | 65 | 145.8 | – | – | – | –
CCOc1cccc(N2CCn3nc(COc4ccccc4)cc3C2=O)c1 [Example 59] | 130 | 57 | 115.8 | – | – | – | –
CC(C)CCc1cccc(N2CCn3nc(COc4ccccc4)cc3C2=O)n1 [Example 65] | 363 | 74 | 76.7 | – | – | – | –
O=C1c2cc(COc3ccccc3)nn2CCN1c1ncccc1Cl [Example 68] | 324 | 68 | 127.5 | – | – | – | –
Cc1cc(N2CCn3nc(COc4ccccc4)cc3C2=O)ncc1F [Example 72] | 91 | 72 | 134.7 | – | – | – | –

SMILES | EC50 ([1]; read-out: EC50) [nM] | Emax [1] [%] | melting point [°C] | EC50 ([1]; EC50 (nM)) [nM] | EC50 ([1]; read-out: pEC50 (converted)) [nM] | pEC50 [1] | Emax (%) [1] [%]
O=C1c2cc(COc3ccccc3)nn2CCN1c1cccc(CF)n1 [Example 76] | 66 | 69 | 111.3 | – | – | – | –
COc1ccnc(N2CCn3nc(COc4ccccc4)cc3C2=O)n1 [Example 78] | 490 | 69 | 144.5 | – | – | – | –
O=C1c2cc(COc3ccccc3)nn2CCN1c1ccncn1 [Example 80] | 1290 | 71 | 148.9 | – | – | – | –
Cc1cc(N2CCn3nc(COc4ccccc4)cc3C2=O)ncn1 [Example 83] | 891 | 65 | 143.7 | – | – | – | –
Cc1ccc(N2CCn3nc(COc4ccccc4)cc3C2=O)nn1 [Example 84] | > 10000 | 53 | 166.7 | – | – | – | –
O=C1c2cc(COc3ccccc3)nn2CCN1c1cnccn1 [Example 87] | 813 | 56 | 239.3 | – | – | – | –
Cc1nc(N2CCn3nc(COc4ccccc4)cc3C2=O)ncc1F [Example 90] | 575 | 67 | 177.1 | – | – | – | –
COc1cc(C)nc(N2CCn3nc(COc4ccccc4)cc3C2=O)n1 [Example 99] | 646 | 67 | 183.7 | – | – | – | –
Cc1cnc(N2CCn3nc(COc4ccccc4)cc3C2=O)cn1 [Example 100] | 955 | 67 | 235.5 | – | – | – | –
COc1nc(N2CCn3nc(COc4ccccc4)cc3C2=O)cnc1C [Example 102] | 120 | 69 | 158.1 | – | – | – | –
COc1cc(C)cc(N2CCn3nc(COc4ccccc4)cc3C2=O)n1 [Example 104] | 54 | 67 | 140.9 | – | – | – | –
COc1cc(N2CCn3nc(COc4ccccc4)cc3C2=O)nc(C)n1 [Example 105] | 219 | 53 | 131.9 | – | – | – | –
COc1cnc(N2CCn3nc(COc4ccccc4)cc3C2=O)nc1OC [Example 107] | 347 | 63 | 169.6 | – | – | – | –
COc1nc(N2CCn3nc(COc4ccccc4)cc3C2=O)ccc1C [Example 108] | – | 64 | 145.3 | – | 17.8 | – | –
CC(C)c1cccc(N2CCn3nc(COc4ccccc4)cc3C2=O)n1 [Example 111] | 93 | 68 | 101.8 | – | – | – | –
COc1ccc(N2CCn3nc(COc4ccccc4)cc3C2=O)c(C)n1 [Example 114] | 100 | 68 | 136.3 | – | – | – | –
Cc1ccc(N2CCn3nc(COc4ccccc4)cc3C2=O)c(C)n1 [Example 116] | 310 | 62 | > 300 | – | – | – | –
Cc1cnc(C)c(N2CCn3nc(COc4ccccc4)cc3C2=O)n1 [Example 120] | 750 | 67 | 141.7 | – | – | – | –
O=C1c2cc(COc3ccccc3)nn2CCN1c1cnc2cnccn12 [Example 374] | 3400 | 72 | – | – | – | – | –
O=C1c2cc(COc3ccccc3)nn2CCN1c1ccc2nonc2c1 [Example 375] | 72 | – | – | – | – | 7.14 | 70
O=C1c2cc(COc3ccccc3O)nn2CCN1c1ccc(F)cn1 [Example 377] | > 10000 | – | – | – | – | <5.00 | 71
O=c1[nH]ccn2nc(COc3ccccc3)cc12 [Example 378] | > 30200 | – | – | – | – | <4.52 | 29
